Laboratory results reported in article PMC3905653, “Characterization of two transketolases encoded on the chromosome and the plasmid pBM19 of the facultative ribulose monophosphate cycle methylotroph Bacillus methanolicus” (BMC Microbiology, 2014).

Tests used:
[1] = molecular target: T1, TKT^C (Bacillus methanolicus, UniProt I3DZN5); assay: inhibition in coupled assay I; format: biochemical; settings: effector tested at 1 and 5 mM, which one gave the value is not told; R5-P and X5-P, pH 7.5, Mn2+
T1 construct: gene tktC; full length, chromosomal gene; pET16b N-terminal His10 tag cut by factor Xa; E. coli BL21(DE3); 73 kDa, homotetramer 280 kDa; primers tktC encode start TTG-TTT-GAT-AAA-ATT-GAC-CAT (MFDKIDH) and C-terminal ALLKQ

[2] = molecular target: T2, TKT^P (Bacillus methanolicus, UniProt Q6TV44); assay: inhibition in coupled assay I; format: biochemical; settings: effector tested at 1 and 5 mM, which one gave the value is not told; R5-P and X5-P, pH 7.5, Mn2+
T2 construct: gene tktP; full length, plasmid pBM19 gene; pET16b N-terminal His10 tag cut by factor Xa; E. coli BL21(DE3); 73 kDa, homotetramer 280 kDa
T2 sequence (Q6TV44 entry or part of it): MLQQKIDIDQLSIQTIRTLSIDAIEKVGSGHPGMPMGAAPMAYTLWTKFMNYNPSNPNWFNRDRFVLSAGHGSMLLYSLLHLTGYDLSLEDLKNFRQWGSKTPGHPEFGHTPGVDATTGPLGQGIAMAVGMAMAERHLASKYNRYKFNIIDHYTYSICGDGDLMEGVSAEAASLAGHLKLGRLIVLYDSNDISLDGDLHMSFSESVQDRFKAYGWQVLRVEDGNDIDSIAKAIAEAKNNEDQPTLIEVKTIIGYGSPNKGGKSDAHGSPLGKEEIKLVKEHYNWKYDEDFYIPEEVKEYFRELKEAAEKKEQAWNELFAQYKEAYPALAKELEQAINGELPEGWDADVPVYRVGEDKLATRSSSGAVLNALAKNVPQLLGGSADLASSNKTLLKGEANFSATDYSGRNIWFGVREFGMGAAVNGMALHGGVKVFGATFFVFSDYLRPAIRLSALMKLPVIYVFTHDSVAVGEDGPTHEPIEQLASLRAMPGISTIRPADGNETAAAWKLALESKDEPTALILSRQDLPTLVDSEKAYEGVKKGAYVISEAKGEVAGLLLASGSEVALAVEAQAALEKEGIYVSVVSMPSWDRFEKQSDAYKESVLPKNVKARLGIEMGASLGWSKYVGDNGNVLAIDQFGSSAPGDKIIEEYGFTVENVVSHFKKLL

T1 sequence (I3DZN5 entry or part of it): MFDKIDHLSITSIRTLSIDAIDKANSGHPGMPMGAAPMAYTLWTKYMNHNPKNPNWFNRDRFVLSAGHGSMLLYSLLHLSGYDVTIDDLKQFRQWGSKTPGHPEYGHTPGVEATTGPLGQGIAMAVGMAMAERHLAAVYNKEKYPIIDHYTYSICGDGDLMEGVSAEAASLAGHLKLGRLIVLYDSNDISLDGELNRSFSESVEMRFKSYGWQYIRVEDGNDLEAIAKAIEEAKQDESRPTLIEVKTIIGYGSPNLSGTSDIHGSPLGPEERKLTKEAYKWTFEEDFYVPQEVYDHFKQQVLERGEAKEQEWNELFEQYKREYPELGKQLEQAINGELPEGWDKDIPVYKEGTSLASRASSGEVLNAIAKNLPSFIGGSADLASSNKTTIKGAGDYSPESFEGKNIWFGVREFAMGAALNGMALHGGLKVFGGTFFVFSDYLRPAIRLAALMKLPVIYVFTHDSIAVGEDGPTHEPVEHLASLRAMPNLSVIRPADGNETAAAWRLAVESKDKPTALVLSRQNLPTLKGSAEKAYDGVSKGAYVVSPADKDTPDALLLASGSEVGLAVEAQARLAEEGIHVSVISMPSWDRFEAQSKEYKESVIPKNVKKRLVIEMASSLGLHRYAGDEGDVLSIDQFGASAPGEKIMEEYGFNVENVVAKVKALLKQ

| % inhibition [1] | % inhibition [2] | Structure (SMILES) |
| --- | --- | --- |
| 75% | 65% | Nc1ncnc2c1ncn2[C@@H]1O[C@H](COP(=O)(O)OP(=O)(O)OP(=O)(O)O)[C@@H](O)[C@H]1O [ATP] |
| 95% | 65% | Nc1ncnc2c1ncn2[C@@H]1O[C@H](COP(=O)(O)OP(=O)(O)O)[C@@H](O)[C@H]1O [ADP] |
